Assay results reported in patent publication US20260117070A1, “NEAR-INFRARED FLUORESCENT HEPTAMETHINE DYE CONJUGATES WITH FAVORABLE BLEACHING PROPERTIES” (HELMHOLTZ ZENTRUM MÜNCHEN DEUTSCHES FORSCHUNGSZENTRUM FÜR …, priority 2022, published 2026).

What was measured:
[1] = Procedure for determining photostability (bleaching in vitro, continuous 785 nm irradiation); format: physicochemical
Description: 4C): Bleaching in vitro: Capillaries filled with 2.5 μM solutions in serum were continuously irradiated using a 785 nm laser (100 mW/cm^2) and frames were acquired for 20 minutes. Bleaching kinetics were extracted by analyzing the mean counts in an ROI overtime
Imaging was performed on a custom-built setup. LUMICS laser unit LU0785DLU250-S70AN03 (25 W) 785 nm″ was used for excitation. Laser was externally controlled using a LUMICS laser diode control system. Laser output was coupled in a 4×1 fan-out fiber-optic bundle (THORLABS BF46LSO1) of 600 μm core diameter for each optical path. The output from the fiber was fixed in an excitation cube (THORLABS KCB1EC/M), reflected off of a mirror (THORLABS BBE1-E03), and passed through a positive achromat (THORLABS AC254-050-B), SP filter (THORLABS FESH800) and an engineered diffuser (THORLABS ED1-S20-MD or ED1-S50-MD) to provide uniform illumination over the working area. In a typical experiment, the excitation flux in the field of view was adjusted to be close to 100 mWcm^−2. Power density was determined using a THORLABS energy meter console PM100D in combination with a THORLABS S130C sensor (measurement uncertainty of ±3%). The working area was covered by blackout fabric (THORLABS BK5). Emitted light was directed through two filters (THORLABS FELH800) screwed onto a EDMUND OPTICS Acktar Hexa-Black 25 mm noise reduction extension tube, via a C-mount camera lens (NAVITAR SWIR-35) onto an NIR-camera (PCO Edge 4.2 or Prime BSI). The software μManager was used to externally control the camera. The assembly was partially enclosed to avoid excess light while enabling manipulation of the field of view during operation.
For each dye (conjugate), solutions in H2O and FBS with an OD (785 nm)<1.0 in a 1 cm cuvette (HELLMA 115B-QS) were prepared. […] In order to be able to make useful comparison between different samples and experiments, the time axis was converted into a number of absorbance events by multiplication with the “absorptions per molecule per second”.

MDA-MB-468 cells = assay: In vivo distribution of NIR-fluorescent Panitumumab conjugates in tumor bearing mice; details: 24 hrs after intravenous injection; 3 μg or 100 μg dose
Excerpt: FIG. 5: Comparing Pan-sNIR (NIR-fluorescent Panitumumab) and Pan-IRDye800CW in tumor bearing mice post intraveneous injection. Mice were generated by subcutaneous implantation of MDA-MB-468 cells.

Row | Compound | more photostable than NIR, IRDye®8000W ([1]; fetal bovine serum (FBS)) | more stable than ICG ([1]; fetal bovine serum (FBS)) | bleaching slower than NIR, ICG and IRDye®8000W ([1]; water) | tumor signal than/over the liver (MDA-MB-468 cells)
1 | C#CCCCCNC(=O)C(=C\C=C\C1=[N+](CCCCS(=O)(=O)[O-])c2ccc(S(=O)(=O)[O-])cc2C1(C)C)/C=C/C=C1/N(CCCCS(=O)(=O)[O-])c2ccc(S(=O)(=O)[O-])cc2C1(C)C.[Na+].[Na+].[Na+] [sNIR, sodium 2-((1E,3Z,5E)-7-((E)-3,3-dimethyl-5-sulfonato-1-(4-sulfonatobutyl)indolin-2-ylidene)-4-(hex-5-yn-1-ylcarbamoyl)hepta-1,3,5-trien-1-yl)-3,3-dimethyl-1-(4-sulfonatobutyl)-3H-indol-1-ium-5-sulfonate] | 2.5 times | 1.6 times | 3.5 times | 
2 | Pan-8000W: Panitumumab-IRDye800, prepared in a similar fashion [reference compound] |  |  |  | 1.4-1.8 ×
